Test results as given in ChEMBL document CHEMBL5113389, “Topoisomerase I inhibitors: Challenges, progress and the road ahead” (Eur J Med Chem, 2022).
Blank lines part the entries; values can stand above or below the compound they belong to.

Tests used:
RPMI 8402 = assay: Cytotoxicity against human RPMI 8402 cells assessed as cell growth inhibition measured after 4 days by MTT assay; assay type: functional, cell-based; conditions: RPMI 8402, 96 h
HCT-116 [1] = assay: Cytotoxicity against human HCT-116 cells assessed as cell growth inhibition measured after 4 days by MTT assay; assay type: functional, cell-based; conditions: HCT-116, 96 h
K562 = assay: Cytotoxicity against human K562 cells assessed as cell growth inhibition incubated for 72 hrs by MTT assay; assay type: functional, cell-based; conditions: K562, 72 h
HCT-116 [2] = assay: Cytotoxicity against human HCT-116 cells assessed as cell growth inhibition incubated for 72 hrs by MTT assay; assay type: functional, cell-based; conditions: HCT-116, 72 h
P388 [3] = assay: Cytotoxicity against mouse P388 cells assessed as cell growth inhibition; assay type: functional, cell-based
CCRF-CEM = assay: Cytotoxicity against human CEM cells assessed as cell growth inhibition; assay type: functional, cell-based
[4] = molecular target: T1, DNA topoisomerase 1 (Homo sapiens) (UniProt P11387); assay: Inhibition of full-length recombinant human Top1 expressed in baculovirus infected Sf9 insect cells at 5 uM incubated for 30 mins relative to control
T1 sequence (whole entry): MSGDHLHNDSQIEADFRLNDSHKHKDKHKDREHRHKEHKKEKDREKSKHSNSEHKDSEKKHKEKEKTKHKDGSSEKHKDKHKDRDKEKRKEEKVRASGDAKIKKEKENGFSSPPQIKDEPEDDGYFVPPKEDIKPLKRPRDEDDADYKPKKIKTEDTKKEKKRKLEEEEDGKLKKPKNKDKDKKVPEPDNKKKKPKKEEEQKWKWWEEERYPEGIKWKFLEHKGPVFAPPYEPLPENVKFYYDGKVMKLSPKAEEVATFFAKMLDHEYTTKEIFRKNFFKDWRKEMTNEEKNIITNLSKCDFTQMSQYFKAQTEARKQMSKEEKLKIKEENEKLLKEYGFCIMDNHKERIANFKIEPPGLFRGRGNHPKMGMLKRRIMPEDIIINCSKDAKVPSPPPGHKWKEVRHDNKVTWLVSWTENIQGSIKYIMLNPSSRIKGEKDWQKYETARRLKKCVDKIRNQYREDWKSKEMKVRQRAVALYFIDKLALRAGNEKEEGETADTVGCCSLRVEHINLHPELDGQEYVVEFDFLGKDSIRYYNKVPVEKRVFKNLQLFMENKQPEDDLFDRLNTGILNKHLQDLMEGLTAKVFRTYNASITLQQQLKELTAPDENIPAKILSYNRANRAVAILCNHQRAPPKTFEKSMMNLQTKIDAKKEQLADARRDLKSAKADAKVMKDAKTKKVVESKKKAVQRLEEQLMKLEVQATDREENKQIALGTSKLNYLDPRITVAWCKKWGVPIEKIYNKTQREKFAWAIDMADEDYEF

P388CPT45 = assay: Cytotoxicity against mouse P388CPT45 cells assessed as cell growth inhibition incubated for 3 to 4 days by MTT assay; assay type: functional, cell-based
P388 [5] = assay: Cytotoxicity against mouse P388 cells assessed as cell growth inhibition incubated for 3 to 4 days by MTT assay; assay type: functional, cell-based
[6] = Cytotoxicity against human U-937/CR cells assessed as cell growth inhibition incubated for 3 to 4 days by MTT assay; assay type: functional, cell-based
U-937 = assay: Cytotoxicity against human U-937 cells assessed as cell growth inhibition incubated for 3 to 4 days by MTT assay; assay type: functional, cell-based
MCF7 = assay: Cytotoxicity against human MCF7 cells assessed as cell growth inhibition incubated for 3 days by SRB assay; assay type: functional, cell-based; conditions: MCF7, 72 h
HCT-116 [7] = assay: Cytotoxicity against human HCT-116 cells assessed as cell growth inhibition incubated for 3 days by SRB assay; assay type: functional, cell-based; conditions: HCT-116, 72 h
[8] = molecular target: T1, DNA topoisomerase 1 (Homo sapiens); assay: Inhibition of human Top1 expressed in Escherichia coli assessed as enzyme-mediated DNA cleavage by measuring relative effective concentration incubated for 30 mins relative to topotecan
K5 = assay: Cytotoxicity against human camptothecin-resistant K5 cells assessed as cell growth inhibition measured after 4 days by MTT assay; assay type: functional, cell-based; conditions: K5, 96 h
[9] = molecular target: T1, DNA topoisomerase 1 (Homo sapiens); assay: Inhibition of Top1 in [3H]-Thymidine-labeled human MCF7 cells assessed as Top1-DNA complex formation at 30 uM incubated for 60 mins followed by addition of salmon sperm DNA and subsequent addition of KCl relative to control; assay type: cell-based

Compound: COc1cc2c(=O)n(CCN(C)C)c3c4cc(N)ccc4ncc3c2cc1OC
IC50 (RPMI 8402): 40 nM

Compound: COc1cc2c(=O)n(CCN(C)C)c3c4ccc([N+](=O)[O-])cc4ncc3c2cc1OC
IC50 (RPMI 8402): 75 nM

Compound: COc1cc2c(=O)n(CCN(C)C)c3c4cc([N+](=O)[O-])ccc4ncc3c2cc1OC
IC50 (RPMI 8402): 18 nM

Compound: CN(C)CCn1c(=O)c2ccc([N+](=O)[O-])cc2c2cnc3cc4c(cc3c21)OCO4
IC50 (RPMI 8402): 3 nM

Compound: COc1ccc2c(ccc3c4cc5c(cc4nnc23)OCO5)c1
IC50 (HCT-116 [1]): 40 nM
IC50 (RPMI 8402): 70 nM

Compound: O=c1c2ccccc2nc2n1Cc1c-2nc2ccccc2c1C(F)(F)F
IC50 (K562): 21000 nM
IC50 (HCT-116 [2]): 17000 nM

Compound: COc1cc2c(=O)n(CCN(C)C)c3c4ccc(N)cc4ncc3c2cc1OC
IC50 (RPMI 8402): 100 nM

Compound: COc1cc(-c2c3c4cc(OC)c(O)cc4oc(=O)c3n3ccc4cc(O)c(OC)cc4c23)ccc1O [LAMELLARIN D]
IC50 (P388 [3]): 136 nM
IC50 (CCRF-CEM): 14 nM

inhibition [4]: 48%
Compound: O=c1c2ccccc2nc2n1Cc1cc3c(Cl)cccc3nc1-2

Compound: COc1cc2ccc3c4cc5c(cc4ncc3c2cc1OC)OCO5
IC50 (P388CPT45): 180 nM
IC50 (P388 [5]): 190 nM
IC50 [6]: 50 nM
IC50 (U-937): 40 nM

Compound: CC[C@@]1(O)C(=O)Cc2c1cc1n(c2=O)Cc2c-1nc1cc3c(cc1c2C1CCC1)OCO3
IC50 (MCF7): 3 nM
IC50 (HCT-116 [7]): 6 nM

Ratio [8]: 0.1
Compound: CN(C)CCn1c(=O)c2cc([N+](=O)[O-])ccc2c2cnc3cc4c(cc3c21)OCO4
IC50 (RPMI 8402): 2 nM

inhibition [4]: 54%
Compound: O=c1c2ccccc2nc2n1Cc1cc3c(Br)cccc3nc1-2

Compound: COc1cc2ncc3c4cc5c(cc4ccc3c2cc1OC)OCO5
IC50 (K5): 10800 nM
IC50 (RPMI 8402): 4500 nM

inhibition [4]: 18%
Compound: O=c1c2ccccc2nc2n1Cc1cc3ccccc3nc1-2

inhibition [9]: 24.2%
Compound: CN1c2ccccc2C(=O)N2CCc3c([nH]c4ccccc34)C21 (stereo not given)
